How the values were obtained:
[1] = target: T1, bovine serum albumin (BSA) (Bos taurus, UniProt P02769); assay: ITC, BSA control protein; format: binding
T1 construct: purchased EMD (Billerica, MA)
Protocol: (2) Preparation of Flag-DDX5, Flag-USP2, Flag-UbE2T and Flag-Top1 protein solutions (>360 μL/sample), respectively, containing 10 μM of Flag-DDX5, Flag-USP2, Flag-UbE2T or Flag-Top1 proteins in 1×PBS (pH7.4) and 8% DMSO from protein stocks in 1× PBS (the same solution was also prepared for BSA).
(3) preparation of washing/diluting solution (>2.5 mL/sample) containing 1× PBS (pH7.4) and 8% DMSO.
(4) ITC assay was performed using the auto-iTC200 instrument (MicroCal, GE). A protein solution (Flag-DDX5, Flag-USP2, Flag-UbE2T, Flag-Topl or BSA) with defined concentration (10 μM) in a volume of 360 μL in 1×PBS (pH7.4) containing 8% DMSO was loaded into the calorimeter cell as the Macromolecule (M). […] At each injection, the program calculates [M]t and [X]t (total protein and total ligand at that injection). The binding constant (KD)), binding stoichiometry (n), and thermodynamic parameters (AH and AS) were determined by fitting the titration curve to a one-site binding mode, using the Origin software provided by the manufacturer.

[2] = Liver microsome stability; conditions: for microsomal CLint at 0.5 μM / half-life at 0.5 μM: both; for microsomal CLint at 0.5 μM: CLint (intrinsic clearance); for microsomal CLint at 0.5 μM / half-life at 0.5 μM / % Remaining of Initial (n = 1): human liver microsome
CYP3A4 mRNA = conditions: human, hepatocytes
Description: (2) CYP positive inducers (Table 58a) and Williams' Medium E (WME) were purchased from Sigma-Aldrich (St. Louis, MO, USA). Dulbecco's phosphate-buffered saline (DPBS, pH 7.4) was purchased from Invitrogen (Carlsbad, CA, USA). Hepatocyte culture medium (serum-free) for CYP induction was purchased from XenoTech (catalog #K2300, Lenexa, KS, USA). The CellTiter 96 AQueous ONE Solution Cell Proliferation Assay was obtained from Promega (Madison, WI, USA). All other chemicals and reagents were of analytical grade or higher. (3) Fresh human hepatocytes (Table 58b) seeded at ˜0.15 million cells/well in 48-well plates (˜0.75 million cells/mL) were purchased from Thermo Fisher Scientific (Grand Island, NY, USA) and BioreclamationIVT (Baltimore, MD, USA).
Vehicle controls were treated in parallel with hepatocyte culture medium. […] (2) After the CYP induction treatment, the cells were used for a cell viability assay. […] The absorbance of formazan, which is proportional to the number of viable cells, was measured spectrophotometrically using the CellTiter 96 AQueous ONE Solution Cell Proliferation Assay. […] The concentration of RNA was determined using a Qubit Fluorometer with a Qubit RNA HS assay kit (Invitrogen). cDNA was synthesized from up to 1 μg of the total RNA harvested from the cells using a QuantiTect RT kit (Qiagen). […]

[3] = Plasma protein binding (RED); conditions: both, human, % Bound of Plasma, Test Article (FL118), 37° C.
USP2a [4] = target: T2, USP2a (Homo sapiens, UniProt O75604); assay: USP2a deubiquitinase in vitro reconstitution assay; conditions: 50 nM FL118; polyUb MdmX
T2 sequence (O75604 1-605): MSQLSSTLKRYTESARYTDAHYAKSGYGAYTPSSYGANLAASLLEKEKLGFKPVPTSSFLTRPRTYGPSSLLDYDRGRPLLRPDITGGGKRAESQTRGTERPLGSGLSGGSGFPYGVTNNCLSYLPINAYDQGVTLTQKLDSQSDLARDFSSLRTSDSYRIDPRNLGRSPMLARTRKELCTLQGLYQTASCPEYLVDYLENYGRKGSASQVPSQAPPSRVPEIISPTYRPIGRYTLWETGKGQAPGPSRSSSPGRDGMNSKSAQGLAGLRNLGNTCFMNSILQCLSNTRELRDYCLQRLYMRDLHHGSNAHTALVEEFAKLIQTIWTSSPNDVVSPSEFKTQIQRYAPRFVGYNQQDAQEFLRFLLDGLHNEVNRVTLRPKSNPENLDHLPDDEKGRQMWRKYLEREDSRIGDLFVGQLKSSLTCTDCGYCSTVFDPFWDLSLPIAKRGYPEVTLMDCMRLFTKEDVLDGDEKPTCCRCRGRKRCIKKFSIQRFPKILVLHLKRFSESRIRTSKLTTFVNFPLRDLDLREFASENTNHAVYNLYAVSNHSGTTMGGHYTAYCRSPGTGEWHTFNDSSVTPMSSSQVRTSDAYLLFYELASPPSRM
Protocol: Flag-tagged MdmX (0.1 μM) was mixed with 0.1 μM Mdm2 for 60 min at 30° C. in the presence of UbE1, UbE2D3, ubiquitin, and ATP in a buffer. […] Reactions were then immunoblotted with Flag antibody. Signals were detected with enhanced chemiluminescence (ECL). […] Each bar in FIG. 28D is the mean±SD from 3 independent analyses. […] Each bar is the mean±SD from 3 independent analyses; the t-test was used for P-values: * P≤0.5; ** P≤0.01; *** P≤0.001.

USP2a [5] = target: T2, USP2a; assay: Cell-based polyUb/MdmX and USP2a mRNA/protein analysis in PCa cells; parameters: purchased Invitrogen ProtoArray Human Protein Microarray v5.0
Protocol: Each bar is the mean±SD from 3 independent analyses; the t-test was used for P-values: * P≤0.5; ** P≤0.01; *** P≤0.001.
Twenty to fifty μg total protein from each sample (cell lysis or tumor tissue lysis) were heated at 95° C. for 5 minutes after mixing with equal volumes of 2× SDS loading buffer. […] Next, the membrane was incubated with different primary antibodies in TBS-T containing 5% BSA overnight at 4° C. in the range of dilutions from 1:500 to 1:2000 based on the antibody dilution recommended by antibody firms. […] Proteins of interest were detected using Western Lightning ECL-Plus (Perkin Elmer, Waltham, MA) and visualized by various times (3-120 seconds) of exposure. Actin, tubulin and/or GAPDH were detected as the internal control to normalize total protein loading for each sample.
Pertinent to this study, total RNAs were extracted from cancer cells using TRI REAGENT RT (Molecular Research Center), and 5 μg per sample was converted to cDNA with anchored oligo (dT) primers using RevertAid First Strand cDNA Synthesis Kit (Thermo Fisher Scientific, Catalog No. K1622) following the manufacturer's instructions. […] The data were analyzed using the Applied Biosystems 7300 Real Time PCR System and normalized to GAPDH.

T1 sequence (P02769 25-607): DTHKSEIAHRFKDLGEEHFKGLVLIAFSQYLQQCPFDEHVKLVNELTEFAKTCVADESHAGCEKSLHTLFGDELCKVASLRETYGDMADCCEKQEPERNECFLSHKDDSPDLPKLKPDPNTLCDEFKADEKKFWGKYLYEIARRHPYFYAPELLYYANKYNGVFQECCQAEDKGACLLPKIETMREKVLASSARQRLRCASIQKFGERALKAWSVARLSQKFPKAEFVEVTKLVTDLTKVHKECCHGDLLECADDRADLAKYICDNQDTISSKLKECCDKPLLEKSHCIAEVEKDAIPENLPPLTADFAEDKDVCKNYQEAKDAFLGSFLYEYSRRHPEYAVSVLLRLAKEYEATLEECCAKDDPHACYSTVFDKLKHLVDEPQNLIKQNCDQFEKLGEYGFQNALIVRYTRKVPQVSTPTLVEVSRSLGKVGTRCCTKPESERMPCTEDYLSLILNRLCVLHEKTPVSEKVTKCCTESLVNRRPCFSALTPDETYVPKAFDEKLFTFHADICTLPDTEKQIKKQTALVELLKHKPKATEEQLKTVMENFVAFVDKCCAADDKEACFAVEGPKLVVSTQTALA

CCC1(O)C(=O)OCc2c1cc1n(c2=O)Cc2cc3cc4c(cc3nc2-1)OCO4 (centres unmarked) [FL118]
binding to BSA [1]: no binding
microsomal CLint at 0.5 μM ([2]; human, microsomes, calculated (in parentheses)): 18.6 µL/min/mg
microsomal CLint at 0.5 μM ([2]; human, microsomes, bound): < 23.1 µL/min/mg
half-life at 0.5 μM ([2]; human, microsomes, calculated (in parentheses), calculated half-life longer than the experiment): 1.25 h
half-life at 0.5 μM ([2]; human, microsomes, expressed as > the longest incubation time (60 min)): > 1 h
% Remaining of Initial (n = 1) ([2]; 0 min): 100%
% Remaining of Initial (n = 1) ([2]; 10 min): 93%
% Remaining of Initial (n = 1) ([2]; 20 min): 82%
% Remaining of Initial (n = 1) ([2]; 30 min): 76%
% Remaining of Initial (n = 1) ([2]; 60 min): 58%
half-life ([2]; human, microsomes): long half-life
minor induction of CYP3A4 (CYP3A4 mRNA): 5-8%
minor induction of CYP3A4 mRNA (CYP3A4 mRNA): FL118 induces a minor induction (5-8%) of CYP3A4
fraction unbound at 4 h, 1 μM [3]: < 0.01
USP2a deubiquitinase activity (USP2a [4]): inhibited USP2a deubiquitinase activity
USP2a mRNA and protein level (USP2a [5]): USP2a increases
polyUb-mediated MdmX degradation in cells (USP2a [5]): promotes polyUb-mediated MdmX degradation

From patent publication US20250312469A1 (CANGET BIOTEKPHARMA, priority 2024, published 2025)
